Laboratory results from US11752088B2, “Highly concentrated seawater mineral extract and uses thereof” (Oriel Seasalt Company Limited, priority 2015, dated 2023).

Experiment: Flow Mediated Dilation (FMD) test
Conditions: in vivo

With `O=[N+]([O-])OCC(CO[N+](=O)[O-])O[N+](=O)[O-]` [Nitroglycerin] the FMD reading was 10 % FMD and the blood vessel diameter was 5.3 mm.
